Experimental data published in patent US8633168B2, “Inhibitors of S-adenosyl-L-methionine decarboxylase” (Genzyme Corporation, priority 2007, dated 2014).

What was measured:
CYP1A2 = target: T1, CYP1A2 (Homo sapiens, UniProt P05177); assay: Cytochrome P450 inhibition, CYP1A2
T1 sequence (P05177 1-516): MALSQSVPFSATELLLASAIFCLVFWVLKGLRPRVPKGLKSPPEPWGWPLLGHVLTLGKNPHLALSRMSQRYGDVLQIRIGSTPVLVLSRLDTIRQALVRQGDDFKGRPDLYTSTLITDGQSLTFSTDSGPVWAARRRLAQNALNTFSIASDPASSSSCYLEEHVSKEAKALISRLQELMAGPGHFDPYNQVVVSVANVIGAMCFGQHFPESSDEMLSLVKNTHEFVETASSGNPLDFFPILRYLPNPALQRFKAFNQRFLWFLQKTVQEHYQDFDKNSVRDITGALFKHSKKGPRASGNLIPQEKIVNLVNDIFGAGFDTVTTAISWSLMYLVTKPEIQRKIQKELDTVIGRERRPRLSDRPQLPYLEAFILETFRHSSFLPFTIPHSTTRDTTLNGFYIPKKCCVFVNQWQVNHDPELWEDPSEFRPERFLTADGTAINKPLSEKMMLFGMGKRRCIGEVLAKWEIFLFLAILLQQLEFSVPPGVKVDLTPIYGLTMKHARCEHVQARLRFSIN
From the text: (§1) This cytochrome P450 high throughput IC50 inhibition assay is utilized for screening potential inhibitors of the 5 major human CYP isozyme catalytic activities (CYP3A4, 2D6, 2C9, 2C19, and 1A2).

Schistosomes lavae = assay: Screening against Schistosomes, larvae; assay type: cell-based; conditions: Screening Data
CYP2C9 = CYP2C9 (Homo sapiens, UniProt P11712); assay: Cytochrome P450 inhibition, CYP2C9
Sequence of CYP2C9 (P11712 whole entry): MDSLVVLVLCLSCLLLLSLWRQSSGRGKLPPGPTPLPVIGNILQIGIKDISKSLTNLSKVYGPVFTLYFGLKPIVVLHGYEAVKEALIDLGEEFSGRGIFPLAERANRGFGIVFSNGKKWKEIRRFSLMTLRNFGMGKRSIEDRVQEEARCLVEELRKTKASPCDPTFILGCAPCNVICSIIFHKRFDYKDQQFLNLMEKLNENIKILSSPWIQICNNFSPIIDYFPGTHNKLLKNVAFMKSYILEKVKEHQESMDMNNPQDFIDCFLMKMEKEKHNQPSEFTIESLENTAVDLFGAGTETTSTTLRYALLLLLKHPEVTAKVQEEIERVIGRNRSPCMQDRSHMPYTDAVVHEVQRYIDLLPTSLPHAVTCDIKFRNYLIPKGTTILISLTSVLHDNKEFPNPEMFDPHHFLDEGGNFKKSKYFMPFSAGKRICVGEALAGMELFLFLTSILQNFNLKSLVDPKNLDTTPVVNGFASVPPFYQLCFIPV
From the text: as §1

Schistosomes adult = assay: Screening against Schistosomes, adult; assay type: cell-based; conditions: Screening Data
CYP2D6 = CYP2D6 (Homo sapiens, UniProt P10635); assay: Cytochrome P450 inhibition, CYP2D6
Sequence of CYP2D6 (P10635 whole entry): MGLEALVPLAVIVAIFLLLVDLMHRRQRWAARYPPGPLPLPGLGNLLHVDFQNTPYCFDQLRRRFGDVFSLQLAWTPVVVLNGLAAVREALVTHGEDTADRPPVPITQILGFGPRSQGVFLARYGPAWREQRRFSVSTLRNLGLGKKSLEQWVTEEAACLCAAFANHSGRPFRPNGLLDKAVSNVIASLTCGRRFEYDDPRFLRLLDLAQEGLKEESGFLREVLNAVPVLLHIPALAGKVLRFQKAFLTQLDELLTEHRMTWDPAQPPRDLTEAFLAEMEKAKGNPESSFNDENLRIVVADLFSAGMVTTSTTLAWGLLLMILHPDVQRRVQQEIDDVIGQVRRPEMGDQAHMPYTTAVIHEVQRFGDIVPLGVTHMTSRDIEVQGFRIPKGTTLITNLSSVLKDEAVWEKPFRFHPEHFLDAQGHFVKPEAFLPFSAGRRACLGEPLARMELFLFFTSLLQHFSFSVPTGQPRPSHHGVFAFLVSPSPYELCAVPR
From the text: as §1

CYP2C19 = CYP2C19 (Homo sapiens, UniProt P33261); assay: Cytochrome P450 inhibition, CYP2C19
Sequence of CYP2C19 (P33261 whole entry): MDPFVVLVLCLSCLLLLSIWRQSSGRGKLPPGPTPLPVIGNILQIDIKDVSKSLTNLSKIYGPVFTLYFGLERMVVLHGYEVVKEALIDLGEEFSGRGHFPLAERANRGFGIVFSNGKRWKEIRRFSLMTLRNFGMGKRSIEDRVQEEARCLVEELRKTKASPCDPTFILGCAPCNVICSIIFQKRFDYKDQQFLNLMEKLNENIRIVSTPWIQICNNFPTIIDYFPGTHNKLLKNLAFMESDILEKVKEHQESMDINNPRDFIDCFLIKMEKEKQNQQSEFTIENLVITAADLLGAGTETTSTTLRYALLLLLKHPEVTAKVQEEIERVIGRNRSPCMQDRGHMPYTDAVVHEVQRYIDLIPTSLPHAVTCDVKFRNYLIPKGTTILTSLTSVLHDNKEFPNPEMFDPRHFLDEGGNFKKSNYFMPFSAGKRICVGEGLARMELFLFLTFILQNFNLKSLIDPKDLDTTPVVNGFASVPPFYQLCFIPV
From the text: as §1

T. b. brucei = assay: Cell-based screening against T. b. brucei; set-up: species or system Trypanosoma brucei brucei; conditions: Screening Data, two values per compound
Procedure: The bloodstream form trypomastigotes of the three strains are maintained according to standard protocols established at STI.
Drug sensitivity assays are performed in sterile 96-well microtiter plates, with or without serial drug dilutions. The highest concentration for the test compounds is 90 μg/ml. Each drug is tested in duplicate. After 72 hours of incubation the plates are inspected microscopically to assure growth of the controls to determine the minimum inhibitory concentration (MIC), i.e., the lowest drug concentration at which no trypanosomes with normal morphology and motility can be seen compared to control wells. Cell viability is measured by Alamar blue staining and IC50 values are calculated.
Active compounds (IC50<0.2 μg/ml) are tested against the Trypanosoma brucei gambiense STIB 930 and the multi-drug resistant T. b. brucei STIB 950 following the same protocol as described above.
This example provides data relating to the biological screening results. MDL 73811 and selected new compounds 1-7 were tested against a variety of cell-based organisms and enzymes and the IC50 measured. In vitro ADME profiles were also obtained. Solubility, permeability, microsomal/hepatocyte stability, cychrome P450 inhibition and plasma protein binding characteristics were probed for each of the compounds. The methodology for these tests are described in previous paragraphs. The results are summarized in the following 2 charts.

[1] = Solubility in phosphate buffer; assay type: physicochemical; conditions: phosphate buffer, aqueous buffer, kinetic from dmso stock; Example 12 chart; pH 7.4
Procedure: A stock solution for each test compound was prepared at 25 mM in DMSO. These were diluted into phosphate buffer and equilibrated for 16 hours at room temperature, and then filtered to remove precipitated compound. The UV absorbance of this equilibrated sample was compared to a single point reference standard.

CYP3A4 = CYP3A4 (Homo sapiens, UniProt P08684); assay: Cytochrome P450 inhibition, CYP3A4
Sequence of CYP3A4 (P08684 whole entry): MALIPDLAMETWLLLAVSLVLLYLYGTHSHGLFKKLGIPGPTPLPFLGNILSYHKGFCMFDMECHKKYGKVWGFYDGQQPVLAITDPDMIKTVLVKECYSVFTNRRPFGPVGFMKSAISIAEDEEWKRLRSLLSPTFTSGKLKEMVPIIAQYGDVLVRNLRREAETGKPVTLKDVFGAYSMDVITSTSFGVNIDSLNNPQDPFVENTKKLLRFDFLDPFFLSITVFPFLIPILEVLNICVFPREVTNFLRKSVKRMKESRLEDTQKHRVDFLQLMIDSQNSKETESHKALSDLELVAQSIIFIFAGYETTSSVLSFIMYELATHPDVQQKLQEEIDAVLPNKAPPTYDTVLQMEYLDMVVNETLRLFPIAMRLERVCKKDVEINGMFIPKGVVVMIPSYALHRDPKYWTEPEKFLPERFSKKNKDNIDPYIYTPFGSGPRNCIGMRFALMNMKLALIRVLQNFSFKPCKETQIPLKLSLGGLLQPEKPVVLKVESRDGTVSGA
From the text: as §1

Structure (SMILES): CCCc1nc2c(N)ncnc2n1[C@@H]1O[C@H](CN(C)C/C=C\CN)[C@@H](O)[C@H]1O [Compound 7]
- IC50 (CYP1A2): > 5 µM
- IC50 (Schistosomes lavae): > 10 µM
- IC50 (CYP2C9): > 5 µM
- IC50 (Schistosomes adult): > 10 µM
- IC50 (CYP2D6): > 5 µM
- IC50 (CYP2C19): > 5 µM
- IC50 (T. b. brucei): 9.4 µM
- IC50 (T. b. brucei; Trypanosoma brucei): 12.7 µM
- solubility at 16 hours [1]: > 52 µg/mL
- IC50 (CYP3A4): > 5 µM
- logD (LogD): < 1

Structure (SMILES): CCc1nc2c(N)ncnc2n1[C@@H]1O[C@H](CN(C)C/C=C\CN)[C@@H](O)[C@H]1O [Compound 6]
- IC50 (CYP1A2): > 5 µM
- IC50 (Schistosomes lavae): > 10 µM
- IC50 (CYP2C9): > 5 µM
- IC50 (Schistosomes adult): > 10 µM
- IC50 (CYP2D6): > 5 µM
- IC50 (CYP2C19): > 5 µM
- IC50 (T. b. brucei): 0.64 µM
- IC50 (T. b. brucei; Trypanosoma brucei): 1.16 µM
- solubility at 16 hours [1]: > 51 µg/mL
- IC50 (CYP3A4): > 5 µM
- logD (LogD): < 1

Structure (SMILES): Cc1nc(N)c2ncn([C@@H]3O[C@H](CN(C)C/C=C\CN)[C@@H](O)[C@H]3O)c2n1 [Compound 5]
- IC50 (CYP1A2): > 5 µM
- IC50 (Schistosomes lavae): > 10 µM
- IC50 (CYP2C9): > 5 µM
- IC50 (Schistosomes adult): > 10 µM
- IC50 (CYP2D6): > 5 µM
- IC50 (CYP2C19): > 5 µM
- IC50 (T. b. brucei; Trypanosoma brucei): > 14 µM
- solubility at 16 hours [1]: > 49 µg/mL
- IC50 (CYP3A4): > 5 µM
- logD (LogD): < 1
